Source: patent publication US10941158B2, “Pyrazole ACC inhibitors and uses thereof” (Gilead Apollo, LLC, priority 2015, dated 2021)
In brackets after ≈: the same amount, converted by molar mass. Read-outs that look alike come from different tables or passages of the source.

Experiments:
[1] = tested on: C. parapsilosis ATCC 22019; experiment: Anti-Fungal (Candida) Activity Assay, broth microtiter MIC; format: cell-based; conditions: Lodderomyces parapsilosis, read-out: MIC C. parapsilosis ATCC 22019
How it was run: (§1)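 Strains plated from frozen stock onto Sabouraud dextrose agar, 35 °C, 24 h; colonies suspended directly in RPMI 1640/MOPS, density from standard curves; CLSI M27-A3 microdilution; 48 h read, visual vs growth control.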

C. krusei ATCC 6258 = experiment: as above; format: cell-based; conditions: Pichia kudriavzevii, read-out: MIC C. krusei ATCC 6258
How it was run: as §1

C. albicans ATCC 90028 = experiment: as above; format: cell-based; conditions: read-out: MIC C. albicans ATCC 90028
How it was run: as §1

Diplodia maydis (Dm) = experiment: Growth inhibition assay of fungal pathogens; format: cell-based; conditions: Stenocarpella maydis, 48 h, read-out: Concentration at 90% Inhibition Dm
How it was run: (§2)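 Compounds in DMSO tested at final 50, 10, 2 ppm or 2, 0.4, 0.08 ppm. Spores in 17% V8 medium, or 1.5 mm mycelial plugs in ¼ PDB for R. solani, incubated with compound. OD600 and visual ratings at 48 h versus 2% DMSO control gave percent growth inhibition.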

Septoria tritici (St) = experiment: Growth inhibition assay of fungal pathogens; format: cell-based; conditions: for IC90: Zymoseptoria tritici, read-out: Concentration at 90% Inhibition St
How it was run: (§3)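 Liquid-culture assay in which test compounds are applied at three final concentrations (50, 10, 2 ppm or 2, 0.4, 0.08 ppm). Inoculum levels follow 48 h growth curves for each fungus. Growth is monitored by OD600 and by eye, and the 48 h values give % inhibition against DMSO.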

[2] = tested on: Collectotrichum graminicola (Cg); experiment: Growth inhibition assay of fungal pathogens; format: cell-based; conditions: 48 h, read-out: Concentration at 90% Inhibition Cg
How it was run: as §3

Rhizoctonia solani (Rs) = experiment: Growth inhibition assay of fungal pathogens; format: cell-based; conditions: 48 h, read-out: Concentration at 90% Inhibition Rs
How it was run: as §2

[3] = tested on: Phytophthora capsici (Pc); experiment: Growth inhibition assay of fungal pathogens; format: cell-based; conditions: for IC90: Phytophthora capsici, read-out: Concentration at 90% Inhibition Pc
How it was run: as §3

Botrtyis cinerea (Bc) = experiment: Growth inhibition assay of fungal pathogens; format: cell-based; conditions: 48 h, read-out: Concentration at 90% Inhibition Bc
How it was run: as §2

[4] = tested on: Fusarium virguliforme (Fv); experiment: Growth inhibition assay of fungal pathogens; format: cell-based; conditions: 48 h
How it was run: as §3

[5] = tested on: Fusarium moniliforme (Fm); experiment: Growth inhibition assay of fungal pathogens; format: cell-based; conditions: for IC90: Fusarium verticillioides, 48 h, read-out: Concentration at 90% Inhibition Fm
How it was run: as §2

fungal (fACC2) ACC2 = fungal (fACC2) ACC2 (UniProt Q00955); conditions: read-out: fACC2 IC50; fungal ACC2, ADP-Glo
human (hACC2) ACC2 = human (hACC2) ACC2 (Homo sapiens, UniProt O00763); experiment: In vitro Acetyl-CoA Carboxylase (ACC) inhibition assay (ADP-Glo), hACC2; format: biochemical
Experimental: The detailed procedure is as follows. […] 10 μL ADP glo reagent was added. […] 20 μL kinase detection reagent was added.
“NA” stands for “not assayed.”

[6] = read-out: Concentration at 90% Inhibition Fv, Table 4a, 48 hours
[7] = read-out: Concentration at 90% Inhibition Fv, Table 4b, 48 hours
[8] = ATCC22019, 3 replicates, MIC recorded at 48 h
[9] = ATCC6258, 3 replicates, MIC recorded at 48 h
[10] = ATCC90028, 3 replicates, MIC recorded at 48 h
[11] = Table 4b, 48 hours, read-out: Concentration at 90% Inhibition Fv

Chain of human (hACC2) ACC2 (O00763 whole entry): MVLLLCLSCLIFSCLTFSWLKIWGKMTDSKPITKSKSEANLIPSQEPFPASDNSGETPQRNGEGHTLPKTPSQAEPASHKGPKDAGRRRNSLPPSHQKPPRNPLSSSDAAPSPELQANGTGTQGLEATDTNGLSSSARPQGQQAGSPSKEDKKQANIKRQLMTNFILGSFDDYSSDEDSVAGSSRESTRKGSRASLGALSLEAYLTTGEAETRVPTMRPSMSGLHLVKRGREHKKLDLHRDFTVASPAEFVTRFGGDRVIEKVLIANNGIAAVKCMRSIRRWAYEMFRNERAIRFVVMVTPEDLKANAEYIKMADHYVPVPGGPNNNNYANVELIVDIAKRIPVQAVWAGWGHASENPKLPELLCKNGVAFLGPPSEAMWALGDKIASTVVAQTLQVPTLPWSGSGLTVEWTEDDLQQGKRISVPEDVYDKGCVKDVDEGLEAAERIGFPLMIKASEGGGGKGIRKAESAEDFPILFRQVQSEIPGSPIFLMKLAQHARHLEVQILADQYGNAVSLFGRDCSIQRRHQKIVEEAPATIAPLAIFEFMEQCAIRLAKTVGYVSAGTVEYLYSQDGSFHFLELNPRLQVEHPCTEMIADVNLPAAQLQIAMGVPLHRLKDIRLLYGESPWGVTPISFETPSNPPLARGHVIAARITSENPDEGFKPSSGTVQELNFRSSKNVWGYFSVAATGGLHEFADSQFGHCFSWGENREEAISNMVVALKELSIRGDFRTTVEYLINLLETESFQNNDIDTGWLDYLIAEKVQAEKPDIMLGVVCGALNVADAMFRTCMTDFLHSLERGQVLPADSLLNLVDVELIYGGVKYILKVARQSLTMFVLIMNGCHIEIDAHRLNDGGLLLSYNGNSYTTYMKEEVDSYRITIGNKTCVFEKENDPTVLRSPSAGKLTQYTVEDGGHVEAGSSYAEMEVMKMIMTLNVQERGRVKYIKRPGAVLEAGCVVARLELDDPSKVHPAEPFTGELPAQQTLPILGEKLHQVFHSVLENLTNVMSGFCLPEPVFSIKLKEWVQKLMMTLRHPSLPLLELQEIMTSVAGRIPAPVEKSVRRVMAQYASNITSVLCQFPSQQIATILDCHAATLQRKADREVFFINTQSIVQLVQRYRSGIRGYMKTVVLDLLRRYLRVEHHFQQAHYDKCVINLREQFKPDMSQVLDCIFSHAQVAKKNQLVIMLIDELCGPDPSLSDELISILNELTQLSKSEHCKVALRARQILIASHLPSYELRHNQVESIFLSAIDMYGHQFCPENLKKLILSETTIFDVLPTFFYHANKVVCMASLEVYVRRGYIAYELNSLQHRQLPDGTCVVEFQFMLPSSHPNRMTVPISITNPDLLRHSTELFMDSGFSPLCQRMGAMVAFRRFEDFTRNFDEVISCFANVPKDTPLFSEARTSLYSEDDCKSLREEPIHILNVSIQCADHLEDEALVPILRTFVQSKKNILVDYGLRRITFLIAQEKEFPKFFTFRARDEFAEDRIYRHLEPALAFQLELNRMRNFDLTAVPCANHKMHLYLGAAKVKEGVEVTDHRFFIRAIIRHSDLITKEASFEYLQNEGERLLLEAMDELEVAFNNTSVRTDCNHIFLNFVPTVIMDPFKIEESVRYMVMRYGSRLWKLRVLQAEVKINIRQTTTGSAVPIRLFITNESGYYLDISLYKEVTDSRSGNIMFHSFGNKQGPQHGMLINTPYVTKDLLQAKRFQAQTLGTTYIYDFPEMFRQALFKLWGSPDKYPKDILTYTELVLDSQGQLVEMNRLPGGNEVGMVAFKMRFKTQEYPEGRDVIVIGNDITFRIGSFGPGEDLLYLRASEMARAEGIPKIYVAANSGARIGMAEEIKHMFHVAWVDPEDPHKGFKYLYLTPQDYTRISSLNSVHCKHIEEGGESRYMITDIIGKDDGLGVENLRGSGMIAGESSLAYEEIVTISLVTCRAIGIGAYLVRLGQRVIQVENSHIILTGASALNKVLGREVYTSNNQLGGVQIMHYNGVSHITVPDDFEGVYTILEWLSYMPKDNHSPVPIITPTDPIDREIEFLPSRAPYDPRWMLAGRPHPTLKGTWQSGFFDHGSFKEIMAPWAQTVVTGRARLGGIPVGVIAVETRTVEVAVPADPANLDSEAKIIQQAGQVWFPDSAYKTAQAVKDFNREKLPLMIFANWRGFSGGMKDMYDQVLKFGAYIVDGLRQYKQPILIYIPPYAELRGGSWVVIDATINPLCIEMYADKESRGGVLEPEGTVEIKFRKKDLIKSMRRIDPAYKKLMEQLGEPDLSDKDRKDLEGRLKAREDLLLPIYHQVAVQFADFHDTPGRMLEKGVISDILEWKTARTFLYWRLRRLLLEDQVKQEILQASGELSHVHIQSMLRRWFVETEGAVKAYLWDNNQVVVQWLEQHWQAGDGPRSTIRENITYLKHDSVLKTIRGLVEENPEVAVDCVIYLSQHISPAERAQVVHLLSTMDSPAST
Chain of fungal (fACC2) ACC2 (Q00955 whole entry): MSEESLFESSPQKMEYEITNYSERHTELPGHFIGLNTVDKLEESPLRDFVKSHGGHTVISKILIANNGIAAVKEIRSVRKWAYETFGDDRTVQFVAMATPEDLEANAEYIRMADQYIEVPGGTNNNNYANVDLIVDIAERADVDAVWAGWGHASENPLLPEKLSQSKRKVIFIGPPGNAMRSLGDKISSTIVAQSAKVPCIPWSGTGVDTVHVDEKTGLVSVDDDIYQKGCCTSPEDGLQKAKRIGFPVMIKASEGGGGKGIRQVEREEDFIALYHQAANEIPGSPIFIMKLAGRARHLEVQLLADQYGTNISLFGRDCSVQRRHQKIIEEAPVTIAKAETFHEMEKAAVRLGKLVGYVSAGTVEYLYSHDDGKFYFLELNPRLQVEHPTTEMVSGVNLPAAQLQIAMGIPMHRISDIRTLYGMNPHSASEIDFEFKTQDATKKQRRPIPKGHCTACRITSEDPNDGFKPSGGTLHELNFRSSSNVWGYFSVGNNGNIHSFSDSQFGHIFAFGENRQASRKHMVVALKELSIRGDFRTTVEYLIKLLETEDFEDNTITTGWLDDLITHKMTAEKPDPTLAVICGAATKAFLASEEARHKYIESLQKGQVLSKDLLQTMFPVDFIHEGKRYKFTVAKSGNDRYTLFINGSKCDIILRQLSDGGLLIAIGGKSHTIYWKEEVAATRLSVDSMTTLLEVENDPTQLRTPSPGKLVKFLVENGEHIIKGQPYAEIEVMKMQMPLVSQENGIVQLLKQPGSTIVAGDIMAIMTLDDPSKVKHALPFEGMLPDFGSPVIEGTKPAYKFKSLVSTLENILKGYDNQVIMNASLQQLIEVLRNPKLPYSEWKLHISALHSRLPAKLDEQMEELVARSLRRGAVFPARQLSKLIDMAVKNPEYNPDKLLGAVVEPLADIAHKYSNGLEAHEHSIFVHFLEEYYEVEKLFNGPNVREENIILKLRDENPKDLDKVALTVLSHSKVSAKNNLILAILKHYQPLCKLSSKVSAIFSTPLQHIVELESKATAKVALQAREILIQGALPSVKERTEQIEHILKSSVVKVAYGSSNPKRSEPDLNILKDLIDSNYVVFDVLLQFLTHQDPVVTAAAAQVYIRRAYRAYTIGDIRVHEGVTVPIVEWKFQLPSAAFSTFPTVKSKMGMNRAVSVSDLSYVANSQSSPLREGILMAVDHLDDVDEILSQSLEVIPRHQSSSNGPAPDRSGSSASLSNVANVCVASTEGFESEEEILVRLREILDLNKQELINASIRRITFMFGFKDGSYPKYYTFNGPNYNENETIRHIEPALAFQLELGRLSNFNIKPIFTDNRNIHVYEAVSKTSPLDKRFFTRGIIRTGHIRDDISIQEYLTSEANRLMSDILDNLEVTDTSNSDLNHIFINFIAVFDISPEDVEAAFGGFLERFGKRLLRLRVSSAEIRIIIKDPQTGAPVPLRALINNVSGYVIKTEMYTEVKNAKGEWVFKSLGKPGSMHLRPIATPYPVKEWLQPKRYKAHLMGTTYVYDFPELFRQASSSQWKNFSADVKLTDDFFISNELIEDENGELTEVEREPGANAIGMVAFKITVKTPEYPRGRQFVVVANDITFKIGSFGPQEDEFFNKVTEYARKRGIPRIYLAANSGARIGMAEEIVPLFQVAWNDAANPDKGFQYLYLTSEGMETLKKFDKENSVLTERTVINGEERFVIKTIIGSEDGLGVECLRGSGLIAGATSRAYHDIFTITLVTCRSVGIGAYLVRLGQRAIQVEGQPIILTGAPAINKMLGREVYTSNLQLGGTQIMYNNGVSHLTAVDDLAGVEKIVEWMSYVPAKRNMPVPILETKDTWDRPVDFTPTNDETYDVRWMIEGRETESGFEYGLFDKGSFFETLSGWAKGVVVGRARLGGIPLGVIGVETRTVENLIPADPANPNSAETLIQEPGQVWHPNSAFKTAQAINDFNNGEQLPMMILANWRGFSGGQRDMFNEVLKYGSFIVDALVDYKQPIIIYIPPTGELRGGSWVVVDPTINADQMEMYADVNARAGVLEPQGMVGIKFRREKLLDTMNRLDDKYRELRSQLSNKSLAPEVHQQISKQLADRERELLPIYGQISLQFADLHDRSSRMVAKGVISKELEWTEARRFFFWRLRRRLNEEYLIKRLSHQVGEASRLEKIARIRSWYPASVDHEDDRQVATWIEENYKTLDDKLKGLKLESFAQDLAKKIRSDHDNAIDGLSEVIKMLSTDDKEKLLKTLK

Structure (SMILES) | MIC ([1]; ATCC22019, 48 h) [µg/mL] | MIC (C. krusei ATCC 6258; ATCC6258, 48 h) [µg/mL] | MIC (C. albicans ATCC 90028; ATCC90028, 48 h) [µg/mL] | IC90 (Diplodia maydis (Dm); Table 4a) [µg/mL] | IC90 (Diplodia maydis (Dm); Table 4b) [µg/mL] | IC90 (Septoria tritici (St); 48 h, Table 4a) [µg/mL] | IC90 (Septoria tritici (St); 48 h, Table 4b) [µg/mL] | IC90 ([2]; Table 4a) [µg/mL] | IC90 ([2]; Table 4b) [µg/mL] | IC90 (Rhizoctonia solani (Rs); Table 4a) [µg/mL] | IC90 (Rhizoctonia solani (Rs); Table 4b) [µg/mL] | IC90 ([3]; 48 h, Table 4a) [µg/mL] | IC90 ([3]; 48 h, Table 4b) [µg/mL] | IC90 (Botrtyis cinerea (Bc); Table 4a) [µg/mL] | IC90 (Botrtyis cinerea (Bc); Table 4b) [µg/mL] | IC90 [4, 6] [µg/mL] | IC90 [4, 7] [µg/mL] | IC90 [5] [µg/mL] | IC50 (fungal (fACC2) ACC2) [nM] | IC50 (human (hACC2) ACC2) [nM] | further results
COc1ccc(F)cc1[C@H](Cn1c(=O)n(C(C)C(=O)NC(C)C)c(=O)c2c(C)c(-n3cccn3)sc21)OC(C)C (stereo partly drawn) [Compound I-29, 2-(1-((R)-2-(5-fluoro-2-methoxyphenyl)-2-isopropoxy-ethyl)-5-methyl-2,4-dioxo-6-(1H-pyrazol-1-yl)-1,4-dihydrothieno[2,3-d]pyrimidin-3(2H)-yl)-N-isopropylpropanamide] | > 4.1 | 2.1 to 4 (≈ 3.67 to 7 µM) | 1.1 to 2 (≈ 1.92 to 3.5 µM) | 2 (≈ 3.5 µM) | 2 (≈ 3.5 µM) | > 50 | > 50 | 2 (≈ 3.5 µM) | 2 (≈ 3.5 µM) | 2 (≈ 3.5 µM) | 2 (≈ 3.5 µM) | > 50 | > 50 | 2 (≈ 3.5 µM) | 2 (≈ 3.5 µM) | 2 (≈ 3.5 µM) | 2 (≈ 3.5 µM) | 0.4 (≈ 0.7 µM) | 0.6 to 3 | 10 to 40 | Concentration at 90% Inhibition Fm ([5]; Table 4b, 48 hours): A (“A” provided a compound concentration of 0.4 ppm at 90% inhibition of fungal pathogens)
CCO[C@@H](Cn1c(=O)n(C(C)(C)C(=O)N2CCCC2)c(=O)c2c(C)c(-n3cccn3)sc21)c1cc(F)ccc1OC [Compound I-34, (R)-1-(2-ethoxy-2-(5-fluoro-2-methoxyphenyl)ethyl)-5-methyl-3-(2-methyl-1-oxo-1-(pyrrolidin-1-yl)propan-2-yl)-6-(1H-pyrazol-1-yl)thieno[2,3-d]pyrimidine-2,4(1H,3H)-dione] | – | – | – | 10 (≈ 17.1 µM) | 2 (≈ 3.43 µM) | – | – | 2 (≈ 3.43 µM) | 2 (≈ 3.43 µM) | 2 (≈ 3.43 µM) | 2 (≈ 3.43 µM) | – | – | 0.4 (≈ 0.685 µM) | 0.4 (≈ 0.685 µM) | – | – | – | 0.6 to 3 | 10 to 40 | MIC [1, 8]: > 4.1 µg/mL; MIC (C. krusei ATCC 6258; [9]): > 4.1 µg/mL; MIC (C. albicans ATCC 90028; [10]): > 4.1 µg/mL; Concentration at 90% Inhibition St (Septoria tritici (St); Table 4b, 48 hours): D (“D” provided a compound concentration of >50 ppm at 90% inhibition of fungal pathogens); IC90 (Septoria tritici (St); Table 4a, 48 hours): > 50 µg/mL; IC90 ([3]; Table 4a, 48 hours): > 50 µg/mL; Concentration at 90% Inhibition Pc ([3]; Table 4b, 48 hours): D (“D” provided a compound concentration of >50 ppm at 90% inhibition of fungal pathogens); IC90 ([4]; Table 4a, 48 hours, read-out: Concentration at 90% Inhibition Fv): 0.4 µg/mL (≈ 0.685 µM); IC90 [4, 11]: 0.4 µg/mL (≈ 0.685 µM); IC90 ([5]; Table 4a, 48 hours): 0.08 µg/mL (≈ 0.137 µM); IC90 ([5]; Table 4b, 48 hours): 0.08 µg/mL (≈ 0.137 µM)
COc1ccccc1[C@H](Cn1c(=O)n(C(C)(C)C(=O)N2CCCCC2)c(=O)c2c(C)c(-n3cccn3)sc21)OC1CCOCC1 [Compound I-13, (R)-1-(2-(2-methoxyphenyl)-2-((tetrahydro-2H-pyran-4-yl)oxy)ethyl)-5-methyl-3-(2-methyl-1-oxo-1-(piperidin-1-yl)propan-2-yl)-6-(1H-pyrazol-1-yl)thieno[2,3-d]pyrimidine-2,4(1H,3H)-dione] | 1.1 to 2 (≈ 1.73 to 3.15 µM) | 0.25 to 1 (≈ 0.393 to 1.57 µM) | 0.25 to 1 (≈ 0.393 to 1.57 µM) | > 50 | 10 (≈ 15.7 µM) | > 50 | > 50 | > 50 | 10 (≈ 15.7 µM) | > 50 | 10 (≈ 15.7 µM) | > 50 | > 50 | 2 (≈ 3.15 µM) | 2 (≈ 3.15 µM) | > 50 | 10 (≈ 15.7 µM) | 0.4 (≈ 0.629 µM) | 0.6 to 3 | 10 to 40 | Concentration at 90% Inhibition Fm ([5]; Table 4b, 48 hours): A (“A” provided a compound concentration of 0.4 ppm at 90% inhibition of fungal pathogens)
COc1ccc(F)cc1[C@@H](O)Cn1c(=O)n(C(C)(C)C(=O)O)c(=O)c2c(C)c(-n3cccn3)sc21 [Compound I-85] | – | – | – | – | > 50 | – | – | – | > 50 | – | 10 (≈ 19.9 µM) | – | – | – | > 50 | – | – | – | 0.6 to 3 | 10 to 40 | MIC [1, 8]: 0.25 to 1 µg/mL (≈ 0.497 to 1.99 µM); MIC (C. krusei ATCC 6258; [9]): 0.25 to 1 µg/mL (≈ 0.497 to 1.99 µM); MIC (C. albicans ATCC 90028; [10]): 2.1 to 4 µg/mL (≈ 4.18 to 7.96 µM); IC90 (Septoria tritici (St); Table 4b, 48 hours): > 50 µg/mL; IC90 ([3]; Table 4b, 48 hours): > 50 µg/mL; IC90 [4, 11]: > 50 µg/mL; IC90 ([5]; Table 4b, 48 hours): 10 µg/mL (≈ 19.9 µM)
COc1ccc(F)cc1[C@H](Cn1c(=O)n(C(C)(C)C(=O)NC(C)C)c(=O)c2c(C)c(-n3cccn3)sc21)OCC(C)(C)O [Compound I-41, (R)-2-(1-(2-(5-fluoro-2-methoxyphenyl)-2-(2-hydroxy-2-methylpropoxy)ethyl)-5-methyl-2,4-dioxo-6-(1H-pyrazol-1-yl)-1,4-dihydro-thieno[2,3-d]pyrimidin-3(2H)-yl)-N-isopropyl-2-methylpropanamide] | > 4.1 | > 4.1 | > 4.1 | 10 (≈ 16.2 µM) | 2 (≈ 3.25 µM) | > 50 | 10 (≈ 16.2 µM) | 2 (≈ 3.25 µM) | 2 (≈ 3.25 µM) | 10 (≈ 16.2 µM) | 2 (≈ 3.25 µM) | > 50 | > 50 | 2 (≈ 3.25 µM) | 2 (≈ 3.25 µM) | 0.4 (≈ 0.65 µM) | 0.4 (≈ 0.65 µM) | 0.4 (≈ 0.65 µM) | 0.6 to 3 | 3 to 10 | Concentration at 90% Inhibition Fm ([5]; Table 4b, 48 hours): A (“A” provided a compound concentration of 0.4 ppm at 90% inhibition of fungal pathogens)
